Reference: ChEMBL document CHEMBL1201862, “PubChem BioAssay data set” (2004)
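Following 48 hours of exposure in 96-well plates, responses at five concentrations were used to interpolate endpoints linearly. The concentration for 50% growth inhibition is given as GI50.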 Calls of active or inactive are those of the source. Cut-off read from the data, not from the text of the source: active = GI50 up to about 1.1 µM and inactive = higher.

How the values were obtained:
Assay in all cases: inhibition of tumour cell growth, NCI panel, 48 h
[1] = tested on: T47D
[2] = tested on: A498
[3] = tested on: OVCAR-3
[4] = tested on: UACC-257
[5] = tested on: RXF 393
[6] = tested on: ACHN
[7] = tested on: UO-31
[8] = tested on: SR
[9] = tested on: OVCAR-4
[10] = tested on: SN12C
[11] = tested on: HCT-116
[12] = tested on: SK-OV-3
[13] = tested on: HOP-62
[14] = tested on: Hs-578T
[15] = tested on: MDA-MB-435
[16] = tested on: COLO 205
[17] = tested on: KM12
[18] = tested on: SF-539
[19] = tested on: A549
[20] = tested on: Malme-3M

Row | SMILES | GI50 [1] | GI50 [2] | GI50 [3] | GI50 [4] | GI50 [5] | GI50 [6] | GI50 [7] | GI50 [8] | GI50 [9] | GI50 [10] | GI50 [11] | GI50 [12] | GI50 [13] | GI50 [14] | GI50 [15] | GI50 [16] | GI50 [17] | GI50 [18] | GI50 [19] | GI50 [20]
1 | COc1ccc(NCc2cnc3nc(N)nc(N)c3c2C)cc1 | 15 µM (inactive) | > 100 µM (inactive) | 28.4 µM (inactive) | 2.58 µM (inactive) | 43.5 µM (inactive) | 0.56 µM (active) | > 49.8 µM (inactive) | 0.449 µM (active) | > 53.5 µM (inactive) | 3.85 µM (inactive) | 0.0785 µM (active) | 4.34 µM (inactive) | 1.16 µM (inactive) | 59.8 µM (inactive) | 0.428 µM (active) | 9.35 µM (inactive) | 6.41 µM (inactive) | 0.7 µM (active) | 0.303 µM (active) | 
2 | CCCC1C(CC)C(NC)C(C#N)(C#N)C1(C#N)C#N (stereo unspecified) | 14.5 µM (inactive) | 15.6 µM (inactive) |  | 16.7 µM (inactive) | 13.1 µM (inactive) | 18.1 µM (inactive) | 14.6 µM (inactive) | 16.9 µM (inactive) | 28.2 µM (inactive) | 15.1 µM (inactive) | 15.1 µM (inactive) | > 100 µM (inactive) | 15 µM (inactive) | 25.9 µM (inactive) | 25.3 µM (inactive) | 12.8 µM (inactive) | 16.4 µM (inactive) | 16.8 µM (inactive) | 34.8 µM (inactive) | 21.2 µM (inactive)
3 | CC(C)OC(=O)[C@H]1ON2O[C@H](O[C@@H]3CCCC[C@H]3c3ccccc3)C([Si](C)(C)c3ccccc3)[C@H]3OC(=O)[C@@H]1C32 (stereo partly specified) | 87.5 µM (inactive) | > 100 µM (inactive) | > 100 µM (inactive) | > 100 µM (inactive) | > 100 µM (inactive) | > 100 µM (inactive) | > 100 µM (inactive) | 21.2 µM (inactive) |  | > 100 µM (inactive) | > 100 µM (inactive) | > 100 µM (inactive) | > 100 µM (inactive) | > 100 µM (inactive) | > 100 µM (inactive) | > 100 µM (inactive) | > 100 µM (inactive) | > 100 µM (inactive) | > 100 µM (inactive) | 
4 | Cc1nn(C(=O)c2ccc(Cl)cc2)c2c1C(c1ccc([N+](=O)[O-])cc1)SC(=N)N2 (stereo unspecified) | > 10 µM (inactive) |  | > 10 µM (inactive) | > 10 µM (inactive) | > 10 µM (inactive) | > 10 µM (inactive) |  | > 10 µM (inactive) | > 10 µM (inactive) | > 10 µM (inactive) | > 10 µM (inactive) | > 10 µM (inactive) | > 10 µM (inactive) | > 10 µM (inactive) | > 10 µM (inactive) | > 10 µM (inactive) | > 10 µM (inactive) | > 10 µM (inactive) | > 10 µM (inactive) | > 10 µM (inactive)
5 | N#CCCC(CC#N)N1CCN(CCO)CC1 (stereo unspecified) | > 100 µM (inactive) | > 100 µM (inactive) |  | > 100 µM (inactive) | > 100 µM (inactive) | > 100 µM (inactive) | > 100 µM (inactive) | > 100 µM (inactive) | > 100 µM (inactive) | > 100 µM (inactive) | > 100 µM (inactive) | > 100 µM (inactive) | > 100 µM (inactive) | 61.4 µM (inactive) | > 100 µM (inactive) | > 100 µM (inactive) | > 100 µM (inactive) | > 100 µM (inactive) | > 100 µM (inactive) | > 100 µM (inactive)
6 | O=C1C(c2c(O)[nH]c3ccc(Br)cc23)=Nc2ccccc21 | 8.63 µM (inactive) | 3.3 µM (inactive) | 10.6 µM (inactive) | 24.2 µM (inactive) | 2.39 µM (inactive) | 3.06 µM (inactive) | 2.74 µM (inactive) | 6.73 µM (inactive) | 9.04 µM (inactive) | 28 µM (inactive) | 2.32 µM (inactive) | 13 µM (inactive) | 12.4 µM (inactive) | 12.9 µM (inactive) | 6.9 µM (inactive) | 5.65 µM (inactive) | 2.92 µM (inactive) |  | 4.07 µM (inactive) | 4.91 µM (inactive)
7 | CNc1ccc([S+]([O-])Nc2ccc(OC)cc2)cc1 (stereo unspecified) | 31.8 µM (inactive) | > 100 µM (inactive) | > 100 µM (inactive) | > 100 µM (inactive) |  | 32.3 µM (inactive) | 7 µM (inactive) | > 100 µM (inactive) | > 100 µM (inactive) | > 100 µM (inactive) | 66.8 µM (inactive) | 49.2 µM (inactive) | > 100 µM (inactive) | > 100 µM (inactive) | 14.2 µM (inactive) | 29.2 µM (inactive) | 3.86 µM (inactive) | 33.2 µM (inactive) | 66.2 µM (inactive) | 41.7 µM (inactive)
8 | O=C1NCC2(CCN(CCCC3(c4ccc(F)cc4)OCCO3)CC2)N1c1ccccc1 | > 100 µM (inactive) | 86.3 µM (inactive) | > 100 µM (inactive) | 70.6 µM (inactive) | > 100 µM (inactive) | > 100 µM (inactive) |  | > 100 µM (inactive) | > 100 µM (inactive) | > 100 µM (inactive) | > 100 µM (inactive) |  | > 100 µM (inactive) | > 100 µM (inactive) | > 100 µM (inactive) | > 100 µM (inactive) | > 100 µM (inactive) | > 100 µM (inactive) | > 100 µM (inactive) | > 100 µM (inactive)
9 | CC(C)(C)OC(=O)N/C(C=O)=C\C1CCCCC1 | 24.6 µM (inactive) |  | 24.1 µM (inactive) | 20.4 µM (inactive) | 23.4 µM (inactive) | 29.3 µM (inactive) | 16.5 µM (inactive) | 17.3 µM (inactive) | 23.1 µM (inactive) | 19.3 µM (inactive) | 16.3 µM (inactive) | 30 µM (inactive) | 21 µM (inactive) | 27.3 µM (inactive) | 20 µM (inactive) | 19.2 µM (inactive) | 24.4 µM (inactive) | 28.4 µM (inactive) | > 100 µM (inactive) | 25.8 µM (inactive)
10 | C/C(=N\NC(=S)Nc1ccc([N+](=O)[O-])cc1)c1nc2cccnc2[nH]1 | 0.693 µM (active) | 2.67 µM (inactive) | 0.299 µM (active) | 0.565 µM (active) |  | 0.378 µM (active) | 0.322 µM (active) | 0.388 µM (active) | 0.583 µM (active) | 1.65 µM (inactive) | 0.515 µM (active) | 1.16 µM (inactive) | 1.07 µM (active) | 1.27 µM (inactive) | 1.34 µM (inactive) | 2.44 µM (inactive) | 0.873 µM (active) | 0.288 µM (active) | 0.783 µM (active) | 1.36 µM (inactive)
11 | COc1ccc(C(=O)C#Cc2cnc(OC)nc2OC)cc1 | 1.89 µM (inactive) | 18.7 µM (inactive) | 1.68 µM (inactive) | 2.09 µM (inactive) | 1.87 µM (inactive) | 1.5 µM (inactive) | 1.29 µM (inactive) | 0.0491 µM (active) | 6.5 µM (inactive) | 1.19 µM (inactive) | 1.32 µM (inactive) | 14.1 µM (inactive) | 17 µM (inactive) | 4.07 µM (inactive) | 2.57 µM (inactive) | 1.57 µM (inactive) | 2.68 µM (inactive) |  | 4.17 µM (inactive) | 1.67 µM (inactive)
12 | O=C1OCC2=Nc3cccc4cccc(c34)N12 | > 100 µM (inactive) |  | > 100 µM (inactive) | > 100 µM (inactive) | > 100 µM (inactive) | > 100 µM (inactive) | > 100 µM (inactive) | > 100 µM (inactive) | > 100 µM (inactive) | > 100 µM (inactive) | > 100 µM (inactive) | > 100 µM (inactive) | > 100 µM (inactive) | > 100 µM (inactive) | > 100 µM (inactive) | > 100 µM (inactive) | > 100 µM (inactive) | > 100 µM (inactive) | > 100 µM (inactive) | 
13 | O=c1[nH]nc(-c2ccccc2)c2[nH]c(-c3ccccc3)cc12 | 25.5 µM (inactive) |  | > 100 µM (inactive) |  | > 100 µM (inactive) |  | > 100 µM (inactive) | 38.8 µM (inactive) | > 100 µM (inactive) | > 100 µM (inactive) | > 100 µM (inactive) | > 100 µM (inactive) | > 100 µM (inactive) | > 100 µM (inactive) | > 100 µM (inactive) | > 100 µM (inactive) | > 100 µM (inactive) |  | > 100 µM (inactive) | > 100 µM (inactive)
14 | C=C[C@]1(C)CC[C@]2(C)C(CC[C@@]3(C)C2C[C@H](O)[C@H](O)[C@@]3(C)O)C1 (stereo partly specified) | > 100 µM (inactive) | > 100 µM (inactive) | > 100 µM (inactive) | > 100 µM (inactive) |  | > 100 µM (inactive) | > 100 µM (inactive) | > 100 µM (inactive) |  | > 100 µM (inactive) | > 100 µM (inactive) | > 100 µM (inactive) | > 100 µM (inactive) | > 100 µM (inactive) | > 100 µM (inactive) | > 100 µM (inactive) | > 100 µM (inactive) | > 100 µM (inactive) | > 100 µM (inactive) | > 100 µM (inactive)
15 | CC(=O)c1ccc(/N=N/N2CCCC2)cc1 | > 100 µM (inactive) | 15.9 µM (inactive) | > 100 µM (inactive) | > 100 µM (inactive) | > 100 µM (inactive) | > 100 µM (inactive) | > 100 µM (inactive) | > 100 µM (inactive) | > 100 µM (inactive) | > 100 µM (inactive) | > 100 µM (inactive) | > 100 µM (inactive) | > 100 µM (inactive) | > 100 µM (inactive) | > 100 µM (inactive) | > 100 µM (inactive) | > 100 µM (inactive) | > 100 µM (inactive) |  | 
